In US20100298377A1, “NOVEL SUBSTITUTED INDAZOLES, THE PREPARATION THEREOF AND USE OF SAME IN THERAPEUTICS” (SANOFI-AVENTIS, priority 2007, published 2010) one finds IC50 and melting point data, which are given here for eleven compounds.

One may read the IC50 as the concentration that gives 50% inhibition. The term melting point denotes the temperature, or range, at which the solid turns liquid.

Data set [1] concerns MIA PaCa-2 cells (human pancreatic carcinoma cells). The experiment in a line: Proliferation of MIA PaCa-2 cells, intracellular ATP, CellTiter-Glo test. The class given is cell-based. The note with it: 96 hours. The text has this:
b. Study of the Proliferation of Human Tumoral MIA PaCa-2, C-433, LnCaP and MCF7 Cells via Assay of the Intracellular ATP Using the Celltiter-Glo™ Test
The kit CellTiter-Glo™ for measuring cell viability via luminescence ([…]) is a homogeneous method for determining the number of viable cells in culture, based on quantification of the ATP present in the cells, and which indicates the presence of metabolically active cells.
The cell lines used in this test were the following: MIA PaCa-2 cells (human pancreatic carcinoma cells, ATCC, CRL-1420), C-433 cells (human Ewing sarcoma cells, DSMZ, ACC 268), LNCaP clone FGC cells (human prostate carcinoma cells, ATCC, CRL-1740), MCF7 cells (human breast carcinoma cells, ECACC, #86012803). The cells MIAPaCa-2 and LNCaP were cultured in D-MEM culture medium (Invitrogen Gibco, #419656-039) containing 10% foetal calf serum (FCS, Invitrogen Gibco, #10500-064) and 2 mM L-Glutamine (Invitrogen Gibco, #25030-024); the C-433 cells were cultured in MCCoy's 5A culture medium (Invitrogen Gibco, #26600-023)/RPMI 1640 (Invitrogen Gibco, #31870-025) (50/50) containing 10% FCS and 2 mM L-glutamine; the MCF7 cells were cultured in EMEM culture medium (EMEM, Biowhittaker, Lonza, #BE12-662F) containing 10% FCS and 2 mM L-Glutamine.
Evaluation of the Cell Viability via Luminescence Measurement: Celltiter-Glo™ Test
On day 1, the cells were inoculated at 1000 (C-433), 2500 (MCF7) and 10000 (LNCaP and MIA PaCa-2) cells per well in black-bottomed 96-well microplates (NUNC fluoronunc, Fisherbioblock 2311K) in 135 μl of whole culture medium and incubated at 37° C., 5% CO2, for 3 to 6 hours. The cells were then incubated with increasing concentrations of molecules diluted in dimethyl sulfoxide (DMSO, Sigma D2650). The molecules were added in a volume of 15 μl of a 10-fold concentrated solution in a final volume of 150 μl, the final percentage of DMSO being 0.1%. The cells were incubated at 37° C., 5% CO2, for 96 hours. After 4 days of treatment with the molecules, the CellTiter-Glo™ was performed by following the manufacturer's instructions (Kit Celltiter-Glo Luminescent, PROMEGA #G7571). Briefly, the cell plates were equilibrated for about 30 minutes at RT and 100 μl per well of Celltiter-Glo reagent were added. The cells were incubated for 1 hour at RT for lysis of the cells and stabilization of the signal. The intracellular ATP was quantified by measuring the luminescence in rlu units (relative luminescence units), 96 hours after initiation of the treatment, using a luminescence counter (Wallac). The tests were performed in six replicates.
(§1) i) the mean±s.e.m. of each series of well replicates was calculated;
ii) the maximum response is given by positive control wells containing untreated cells; this control was performed in 12 replicates;
iii) the minimum response is given by cell-free and untreated negative control wells; this control was performed in 6 replicates;
iv) using these maximum (100%) and minimum (0%) response values, respectively, the data were normalized to give a percentage relative to the maximum response;
(§2) The IC50 values were calculated by […] with the XLfit software (IDBS, UK) using formula 205.
(In general: ATP-based viability assays read luminescence as a measure of living cells.)

Data set [2] has as its target AKT1 (Homo sapiens, UniProt P31749, S473D). The data set can be described thus: Determination of the IC50 for AKT1 (HTRF). The class given is biochemical. The conditions noted are these: AKT1 without PH domain, activated by PDK1. How it is done: Determination of the IC50 for AKT1
The inhibitory potential of the compounds is evaluated by HTRF, a time-resolved fluorescence technique based on non-radiative energy transfer (FRET). […] This phosphorylation allows the kinase activity of AKT1 to be activated.
Starting with a 10 mM solution of inhibitors, 3 μl are taken and placed in a 96-well polypropylene plate containing 27 μl of 100% DMSO. The various test compounds are diluted in cascade by taking 15 μl of compound, to which are added 30 μl of 100% DMSO.
The various reaction components are added in the following manner:
Next, 10 μl of the inhibitor solution are added. Finally, the reaction is initiated by adding 10 μl of a solution containing both 100 μM of ATP and 10 μM of biotinylated peptide. The sequence of this peptide is as follows: biot-[…] (reference Neosystem SP000560). The plate is then covered with a plastic film, agitated and finally incubated at RT for 30 minutes. […] After incubation overnight at 4° C., the plate is read using an Ultra evolution spectrophotometer from Tecan. […] All the tests are performed in duplicate and the mean of the two tests is calculated.
For each point, a delta F is calculated in the following manner:
(§3) R(Ratio)=counts665 nm/counts620 nm
ΔF % is calculated by the Tecan Ultra Evolution machine.

In data set [3] the target is T1, Human S6K1 (24-421) T412E protein (Homo sapiens, UniProt P23443, T412E).
T1 construct: Human S6K1 (24-421) T412E protein; made in house; host or cells: Sf21 insect cells
The data set can be described thus: Determination of the IC50 for S6K1 (HTRF substrate phosphorylation test). The class given is biochemical. The conditions noted are these: S6K1 activated by PDK1, ATP 30 μM. The procedure: Determination of the IC50 for S6K1
The inhibitory potential of the compounds for S6K1 is evaluated in an enzymatic test of phosphorylation of substrate in HTRF (Homogenous Time-Resolved Fluorescence) format. Human S6K1 (24-421) T412E protein is expressed in sf21 cells and purified by chromatography on a nickel chelate column. It is activated by PDK1.
The test comprises two steps, both performed at RT. The phosphorylation reaction takes place during the first step and the revelation step is performed during the second. […] The final concentrations of compounds thus obtained during the incubation period range from 10 μM to 0.17 nM and the concentration of enzyme is 2 nM. After incubation for 20 minutes, the reaction is stopped and the revelation initiated by addition of 30 μl of a mixture of streptavidin XL 665 Xlent, ref. 611SAXLB Cis bio international, and a europium cryptate-coupled anti-phospho-GSK3 antibody, ref. 64CUSKAZ Cis bio international, dissolved in the revelation buffer (HEPES/NaOH 166.7 mM, EDTA 221.7 mM, KF 667.7 mM, BSA 0.167%, pH 7.0). The reaction takes place in a black half-well plate ref. 3694 Costar.
A mixture of the reaction medium after each addition of reagent is obtained by agitation for a few minutes at 700-1000 rpm on a Heidolph Titramax 100 machine. The reading is taken on a TECAN Ultra Evolution machine after at least one night and up to 3 nights at 4° C. The reading settings are as follows: excitation wavelength 320 nm, emission wavelengths 620 and 665 nm, lag time 150 μs, integration time 500 μs.
For each point, the ΔF % is calculated as follows:
as §3
The IC50 values are calculated by means of the XLfit4 205 equation.

For data set [4], the system named is MEF-IGF1 murine fibroblast cells. The experiment in a line: IGF1-dependent proliferation of MEF-IGF1 cells via incorporation of [14C]-thymidine. In kind it is cell-based. The conditions noted are these: [14C]-thymidine incorporation, IGF1 stimulated, 72 hours; read-out: IC50 MEF-IGF.
Excerpt: a. Study of the IGF1-Dependent Proliferation of MEF-IGF1 Murine Fibroblast Cells Measured via Incorporation of [14C]-Thymidine
This test is based on the incorporation of [^14C]-thymidine into the DNA of the cells for the S phase of the cell cycle during cell division. The cell line used in this test is the MEF/3T3 Tet-Off Clone 18 line obtained by stable transfection of the human receptor IGF1R in murine MEF/3T3 Tet-Off fibroblasts. To measure the IGF1-dependent cell proliferation, the cells were deprived of serum and cultured for 3 days in the serum-free culture medium in the presence of the growth factor IGF1 which stimulates the proliferation of MEF-IGF1 cells.
Test of Incorporation of [^14C]-Thymidine into MEF-IGF1 Cells
On day 1, the cells were inoculated with 7500 cells per well in Cytostar 96-well microplates (Amersham (GE) RPNQ0162) in 200 μl of EMEM medium (EMEM, Biowhittaker, #BE12-662F) containing 10% foetal calf serum (FCS, TET-BD Biosciences Tet System Approved FBS US-Sourced, #8630-1) and 1% PSG (Penicillin-Streptomycin-Glutamine (PSG), Gibco #10378-016), and incubated at 37° C., 5% CO2, for 24 hours. On day 2, the cells were washed in the FCS-free EMEM culture medium containing 1% PSG, and incubated in 170 μl of this serum-free culture medium at 37° C., 5% CO2, for 24 hours. On day 3, the cells were incubated with 10 μl of IGF1 (2 μg/ml of final concentration; recombinant human IGF-1, R & D Systems, #291-G1), 10 μl (0.1 μCi) of [^14C]-Thymidine (NEN NEC-568) plus 10 μl of increasing concentrations of the test molecules, diluted in dimethyl sulfoxide (DMSO, Sigma D2650). The molecules were added in a volume of 10 μl of a 20-fold concentrated solution in a final volume of 200 μl, the final percentage of DMSO being 0.1%. The treated cells were incubated at 37° C., 5% CO2, for 72 hours. The incorporation of [^14C]-Thymidine was quantified in cpm units (counts per minute) by counting the radioactivity 72 hours after the start of the treatment, using a Micro-Beta radioactivity counter (Perkin-Elmer). The tests were performed in duplicate.
as §1
ii) the background noise is calculated by preparing cell-free, IGF1-free and untreated control wells; this control was performed in 4 replicates. The background noise was removed at each measurement;
iii) the maximum response is given by positive control wells containing cells in the presence of IGF1 but untreated; this control was performed in 4 replicates;
iv) the minimum response is given by negative control wells containing IGF1-free and untreated cells; this control was performed in 4 replicates;
as §2

Chain of AKT1 (P31749 118-480 S473D limits assumed): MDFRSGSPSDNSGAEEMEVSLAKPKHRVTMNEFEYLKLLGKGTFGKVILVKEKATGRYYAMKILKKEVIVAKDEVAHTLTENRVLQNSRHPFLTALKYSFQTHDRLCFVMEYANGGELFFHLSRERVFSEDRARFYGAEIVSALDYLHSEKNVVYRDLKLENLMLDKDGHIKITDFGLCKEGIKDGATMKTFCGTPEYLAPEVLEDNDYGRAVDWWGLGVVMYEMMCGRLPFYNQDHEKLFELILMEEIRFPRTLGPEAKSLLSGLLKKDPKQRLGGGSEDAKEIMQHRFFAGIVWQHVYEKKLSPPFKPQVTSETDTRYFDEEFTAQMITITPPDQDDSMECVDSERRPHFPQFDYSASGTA
T1 sequence (P23443 24-421 T412E): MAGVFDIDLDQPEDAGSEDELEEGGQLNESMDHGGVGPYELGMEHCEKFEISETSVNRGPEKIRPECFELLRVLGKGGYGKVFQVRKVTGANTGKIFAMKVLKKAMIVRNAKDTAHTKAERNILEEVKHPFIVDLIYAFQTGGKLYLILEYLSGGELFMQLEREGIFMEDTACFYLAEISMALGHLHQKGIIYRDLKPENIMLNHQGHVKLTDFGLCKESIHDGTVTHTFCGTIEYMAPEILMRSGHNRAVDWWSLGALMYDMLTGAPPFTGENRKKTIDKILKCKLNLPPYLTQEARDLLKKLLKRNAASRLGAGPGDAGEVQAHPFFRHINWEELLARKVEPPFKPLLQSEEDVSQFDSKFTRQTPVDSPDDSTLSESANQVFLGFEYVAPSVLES

`CN1CCCCC1C(NC(=O)Nc1ccc2[nH]nc(CCc3ccccc3)c2c1)c1ccccc1` [Ex 27, 1-[(1-Methylpiperid-2-yl)(phenyl)methyl]-3-[3-(2-phenylethyl)-1H-indazol-5-yl]urea((S,2S),(R,2R))]: the IC50 in data set [1] lay within 1500 to 7000 nM; in data set [2] it was 100 to 500 nM.

As to `CN1CCCCC1C(NC(=O)Nc1ccc2[nH]nc(-c3ccccn3)c2c1)c1ccccc1` [Ex 15, 1-[(1-Methylpiperid-2-yl)(phenyl)methyl]-3-(3-pyrid-2-yl-1H-indazol-5-yl)urea((S,2S),(R,2R))], the IC50 in data set [1] is 2800 nM; in data set [2], 100 to 500 nM.

Turning to `O=C(Nc1ccc2[nH]nc(-c3ccncc3)c2c1)N[C@@H](c1ccc(Cl)c(Cl)c1)[C@@H]1CCCCN1` [Ex 16, 1-{(S)-(3,4-Dichlorophenyl)[(2S)-piperid-2-yl]methyl}-3-(3-pyrid-4-yl-1H-indazol-5-yl)urea], the figures for the IC50 in data set [1] and in data set [2] were 7790 nM and 100 to 500 nM, respectively.

Regarding `O=C(Nc1ccc2[nH]ncc2c1)N[C@@H](c1ccccc1)[C@@H]1CCCCN1` [Ex 8, 1-{(S)-(Phenyl)[(2S)-piperid-2-yl]methyl}-3-(1H-indazol-5-yl)urea], the melting point was found to be 195 °C. Besides, the IC50 in data set [2] is less than 100 nM. In data set [3], this compound came in with an IC50 of 500 to 2000 nM.

As to `CN1CCCCC1C(NC(=O)Nc1cc(F)c2[nH]nc(N)c2c1)c1ccccc1` [Ex 20, 1-(3-Amino-7-fluoro-1H-indazol-5-yl)-3-[(1-methylpiperid-2-yl)(phenyl)methyl]urea((S,2S),(R,2R))], the IC50 in data set [1] is 10000 nM; in data set [2], 100 to 500 nM.

With `O=C(Nc1ccc2[nH]ncc2c1)O[C@H](c1cc(F)cc(Cl)c1)[C@@H]1CCCCN1` [Ex 40, (R)-(3-Chloro-5-fluorophenyl)[(2S)-piperid-2-yl]methyl 1H-indazol-5-ylcarbamate], the IC50 in data set [2] and in data set [3] was 500 to 2000 nM in each case.

For `O=C(Nc1ccc2[nH]ncc2c1)N[C@H](c1ccccc1)[C@H]1CCCCN1` [Ex 9, 1-{(R)-(Phenyl)[(2R)-piperid-2-yl]methyl}-3-(1H-indazol-5-yl)urea], the melting point fell in the range of 147 to 149 °C. The compound also came in with an IC50 in data set [2] of 100 to 500 nM. The compound also returned an IC50 in data set [3] of 500 to 2000 nM.

In the case of “(6-Fluoro-1H-indazol-5-yl)-(S)-(3-chloro-5-fluorophenyl)-(S)-piperid-2-ylmethyl carbamate [Ex 50]”, the values for the IC50 in data set [2] and in data set [4] were less than 100 nM and 3160 nM, respectively.

For `Nc1n[nH]c2ccc(NC(=O)N[C@@H](c3ccc(Cl)c(Cl)c3)[C@@H]3CCCCN3)cc12` [Ex 29, 1-(3-Amino-1H-indazol-5-yl)-3-{(S)-(3,4-dichlorophenyl)[(2S)-piperid-2-yl]methyl}urea], the IC50 is less than 100 nM in data set [2] and 500 to 2000 nM in data set [3].

On to `O=C(Nc1ccc2[nH]ncc2c1)O[C@@H](c1cccc(C(=O)NC2CCCCC2)c1)[C@@H]1CCCCN1` [Ex 47, (S)-(3-Cyclohexylcarbamoylphenyl)-(S)-piperid-2-ylmethyl (1H-Indazol-5-yl)carbamate], for which the IC50 was less than 100 nM in data set [2] and 100 to 500 nM in data set [3].

Consider `O=C(Nc1ccc2[nH]ncc2c1)O[C@H](c1ccc(Cl)c(Cl)c1)[C@@H]1CCCCN1` [Ex 38c, (R)-(3,4-Dichlorophenyl)[(2S)-piperid-2-yl]methyl 1H-indazol-5-ylcarbamate], for which the IC50 in data set [2] and in data set [3] was 100 to 500 nM in each case.
